Results published in article PMC10428001 (Cancer research, 2022).
Several values for one entry are separate records, joined by “and”; a condition that tells them apart may be missing. Equal values may be shown once.

How the values were obtained:
DFCI 315 [1] = assay: AO/PI live/dead staining of tumor spheroids; format: cell-based, human; details: DFCI 315 tumor spheroids, 5 days
WT HER2 = WT HER2 (Homo sapiens, UniProt P04626); details: purified kinase 5 nmol/L, 100 μmol/L ATP
Calu-3 = assay: Caspase-3/7 activity, live-cell imaging; format: cell-based, human; details: Calu-3, live-cell imaging, 3 days
A-431 = assay: Cancer cell viability; format: cell-based, human; details: read-out: IC50 (average ± SD); A-431, epidermoid, EGFR amp, 72 h
[2] = system: Ba/F3 cells WT EGFR (+ rhEGF); assay: Ba/F3 cell viability; format: cell-based; details: read-out: IC50 (average ± SD); Ba/F3 WT EGFR (+ rhEGF 10 ng/mL), 3 days
[3] = system: Ba/F3 cells HER2 amplification; assay: Ba/F3 cell viability; format: cell-based; details: read-out: IC50 (average ± SD); Ba/F3 HER2 amplification, 3 days
[4] = system: Ba/F3 cells HER2 A775_G776insYVMA; assay: Ba/F3 cell viability; format: cell-based; details: read-out: IC50 (average ± SD); Ba/F3 HER2 A775_G776insYVMA, 3 days
[5] = system: HER YVMA Ba/F3 cells containing a concurrent C805S mutation; assay: Ba/F3 cell viability, concurrent C805S mutation; format: cell-based; details: HER YVMA Ba/F3 cells with concurrent C805S mutation
BT-474 = assay: Cancer cell viability; format: cell-based, human; details: read-out: IC50 (average ± SD); BT-474, breast cancer, HER2 amp, 72 h
HER2 [6] = molecular target: T1, HER2 (Homo sapiens, UniProt P04626); details: Calu-3 cells
T1 sequence (P04626 23-1255): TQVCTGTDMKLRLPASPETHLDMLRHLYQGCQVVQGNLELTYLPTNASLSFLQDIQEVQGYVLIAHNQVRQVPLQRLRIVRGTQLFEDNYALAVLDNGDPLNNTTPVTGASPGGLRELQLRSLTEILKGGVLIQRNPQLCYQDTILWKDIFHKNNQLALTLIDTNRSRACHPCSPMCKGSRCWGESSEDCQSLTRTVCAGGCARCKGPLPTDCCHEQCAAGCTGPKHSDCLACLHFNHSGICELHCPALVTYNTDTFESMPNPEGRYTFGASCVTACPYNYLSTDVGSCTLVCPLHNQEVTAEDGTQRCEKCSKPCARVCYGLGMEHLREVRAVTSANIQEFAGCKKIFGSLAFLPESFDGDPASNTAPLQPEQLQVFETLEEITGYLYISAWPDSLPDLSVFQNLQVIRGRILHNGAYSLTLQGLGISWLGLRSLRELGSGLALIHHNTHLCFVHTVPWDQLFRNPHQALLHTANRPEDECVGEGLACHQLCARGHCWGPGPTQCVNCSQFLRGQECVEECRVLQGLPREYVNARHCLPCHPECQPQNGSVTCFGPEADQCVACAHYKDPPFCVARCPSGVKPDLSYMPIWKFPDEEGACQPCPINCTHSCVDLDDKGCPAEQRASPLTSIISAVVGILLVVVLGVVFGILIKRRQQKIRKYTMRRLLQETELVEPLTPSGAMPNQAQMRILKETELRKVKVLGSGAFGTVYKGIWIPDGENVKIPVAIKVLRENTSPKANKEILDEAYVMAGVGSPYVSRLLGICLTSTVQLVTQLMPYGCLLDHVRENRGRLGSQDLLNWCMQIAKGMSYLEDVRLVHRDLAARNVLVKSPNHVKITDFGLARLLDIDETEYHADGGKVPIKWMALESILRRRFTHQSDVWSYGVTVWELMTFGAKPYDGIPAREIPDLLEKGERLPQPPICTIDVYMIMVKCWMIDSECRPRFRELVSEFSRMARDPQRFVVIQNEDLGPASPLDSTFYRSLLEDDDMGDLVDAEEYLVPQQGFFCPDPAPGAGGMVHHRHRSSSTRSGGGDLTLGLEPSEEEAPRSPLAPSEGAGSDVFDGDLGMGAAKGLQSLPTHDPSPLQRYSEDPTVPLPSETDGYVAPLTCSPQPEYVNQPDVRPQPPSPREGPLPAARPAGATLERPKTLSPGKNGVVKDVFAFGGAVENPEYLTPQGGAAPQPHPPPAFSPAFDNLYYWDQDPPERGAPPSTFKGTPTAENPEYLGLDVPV

Ba/F3 cells HER2 S310F = assay: Ba/F3 cell viability; format: cell-based; details: read-out: IC50 (average ± SD); Ba/F3 HER2 S310F, 3 days
[7] = Pharmacokinetic properties in mice; format: in vivo
[8] = system: WT EGFR vs all HER2 mutants Ba/F3 cells; assay: Selectivity index from Ba/F3 IC50 ratios; format: cell-based; details: average over HER2 mutants
SKBR3 = assay: Cancer cell viability; format: cell-based, human; details: read-out: IC50 (average ± SD); SKBR3, breast cancer, HER2 amp, 72 h
Calu-3 tumors [9] = assay: TUNEL assay in Calu-3 tumors; format: in vivo, NCr nude mice; details: 50 mg/kg BID, 3 days dosing
[10] = system: Ba/F3 cells harboring various HER2 exon 20 insertions or amplification; details: read-out: IC50 across all exon 20 mutants or amplification, cell growth
DFCI 315 [11] = assay: Patient-derived tumor spheroid viability; format: cell-based, human; details: read-out: IC50 (average ± SD); DFCI 315, NSCLC, HER2 ins, 6 days
[12] = system: Ba/F3 cells HER2 755_757LREdelinsRP; assay: Ba/F3 cell viability; format: cell-based; details: read-out: IC50 (average ± SD); Ba/F3 HER2 755_757LREdelinsRP, 3 days
Ba/F3 cells HER2 V777L = assay: Ba/F3 cell viability; format: cell-based; details: read-out: IC50 (average ± SD); Ba/F3 HER2 V777L, 3 days
Calu-3 tumors [13] = assay: Calu-3 xenograft efficacy; format: in vivo; details: Calu-3 in NCr nude mice, oral, 39 days; JBJ-08-178-01 at 50 mg/kg BID
MCF7 = assay: Cancer cell viability; format: cell-based, human; details: read-out: IC50 (average ± SD); MCF7, breast cancer, no ERBB mutation, 72 h
HER2 [14] = molecular target: T1, HER2; details: Calu-3 cells, in the presence of cycloheximide
[15] = system: Ba/F3 cells HER2 G776delinsVC; assay: Ba/F3 cell viability; format: cell-based; details: read-out: IC50 (average ± SD); Ba/F3 HER2 G776delinsVC, 3 days
Ba/F3 cells HER2 V862I = assay: Ba/F3 cell viability; format: cell-based; details: read-out: IC50 (average ± SD); Ba/F3 HER2 V862I, 3 days
[16] = system: Ba/F3 cells HER2 M774delinsWLV; assay: Ba/F3 cell viability; format: cell-based; details: read-out: IC50 (average ± SD); Ba/F3 HER2 M774delinsWLV, 3 days
DFCI 429 = assay: Patient-derived cancer cell viability; format: cell-based, human; details: read-out: IC50 (average ± SD); DFCI 429, NSCLC, HER2 amp, 3 days
[17] = system: Ba/F3 cells HER2 P780_Y781insGSP; assay: Ba/F3 cell viability; format: cell-based; details: read-out: IC50 (average ± SD); Ba/F3 HER2 P780_Y781insGSP, 3 days
NCI-N87 = assay: Cancer cell viability; format: cell-based, human; details: read-out: IC50 (average ± SD); NCI-N87, HER2 amp, 72 h
Ba/F3 cells HER2 L755S = assay: Ba/F3 cell viability; format: cell-based; details: read-out: IC50 (average ± SD); Ba/F3 HER2 L755S, 3 days
H1781 = assay: Cancer cell viability; format: cell-based, human; details: read-out: IC50 (average ± SD); H1781, NSCLC, HER2 ins, 72 h

Chain of WT HER2 (P04626 720-987 limits assumed): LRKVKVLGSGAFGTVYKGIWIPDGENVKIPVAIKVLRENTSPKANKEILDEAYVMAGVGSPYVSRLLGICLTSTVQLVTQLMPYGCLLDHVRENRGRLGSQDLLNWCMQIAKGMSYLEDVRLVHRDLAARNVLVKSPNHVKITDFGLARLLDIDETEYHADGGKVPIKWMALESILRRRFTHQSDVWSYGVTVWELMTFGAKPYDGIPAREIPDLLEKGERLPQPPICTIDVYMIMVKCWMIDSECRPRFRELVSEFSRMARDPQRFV

In the case of `CCOc1cc2ncc(C#N)c(Nc3ccc(Oc4ccn5ncnc5c4)c(C)c3)c2cc1NC(=O)/C=C/CN(C)C` [JBJ-08-178-01], the PI-positive dead cells (DFCI 315 [1]) is reported as “significantly increased PI-positive dead cells”, the “inhibition of WT HER2 in biochemical inhibition assays” value (WT HER2) is reported as “potently inhibited WT HER2” and the “apoptosis (caspase-3/7)” value (Calu-3) is reported as “rapid and greater degree of apoptosis compared with cells treated with poziotinib, neratinib, or tucatinib”. For the same molecule, the IC50 (A-431) was 378 ± 77.1 nM, the IC50 [2] was 368 ± 103 nM and the IC50 [3] was 15.3 ± 11.4 nM. The IC50 [4] was 13.6 ± 2.24 nM, the growth inhibition [5] was “did not inhibit the growth” and the IC50 (BT-474) was 43.7 ± 11.1 nM. The “HER2 endocytosis (pHrodo fluorescence signal)” value (HER2 [6]) was “dramatic increase of fluorescence signal in the cytoplasm”, the IC50 (Ba/F3 cells HER2 S310F) was 41.5 ± 13.4 nM and the AUCINF_obs ([7]; IV (2 mg/kg)) was 323,166 min*ng/mL. For the same molecule, the AUClast ([7]; IV (2 mg/kg)) was 317,601 min*ng/mL, the CI_obs ([7]; IV (2 mg/kg)) was 6.26 mL/min/kg and the Cmax ([7]; IV (2 mg/kg)) was 5.68 µM. The MRTINF_obs ([7]; IV (2 mg/kg)) was 1.42 h, the T1/2 ([7]; IV (2 mg/kg)) was 1.41 h and the Tmax ([7]; IV (2 mg/kg)) was 0.36 h. For the same molecule, the Vss_obs ([7]; IV (2 mg/kg)) was 0.5 L/kg, the AUCINF_obs ([7]; PO (10 mg/kg)) was 243,219 min*ng/mL and the AUClast ([7]; PO (10 mg/kg)) was 166,787 min*ng/mL. It also gave a CI_obs ([7]; PO (10 mg/kg)) of 48.87 mL/min/kg, a Cmax ([7]; PO (10 mg/kg)) of 1.12 µM and an F ([7]; PO (10 mg/kg)) of 10%. For the same molecule, the T1/2 ([7]; PO (10 mg/kg)) was 3.65 h, the Tmax ([7]; PO (10 mg/kg)) was 2.33 h and the “Selectivity index (IC50 ratio = WT EGFR ÷ all HER2 mutants)” value [8] was 6.8 and 6.83. For the same molecule, the IC50 (SKBR3) was 79.4 ± 56.5 nM, the “cell apoptosis (TUNEL)” value (Calu-3 tumors [9]) was “significantly increased cell apoptosis compared with vehicle” and the IC50 [10] was less than 50 nM. The IC50 (DFCI 315 [11]) was 456 ± 117 nM, the IC50 [12] was 7.24 ± 2.28 nM and the IC50 (Ba/F3 cells HER2 V777L) was 2.71 ± 0.41 nM. For the same molecule, the tumor growth (Calu-3 tumors [13]) was “comparable tumor regression with neratinib”, the IC50 (MCF7) was 967 ± 429 nM and the “protein stability of HER2” value (HER2 [14]) was “decreased protein stability of HER2 compared with vehicle”. It also gave an IC50 [15] of 6.01 ± 2.94 nM, an IC50 (Ba/F3 cells HER2 V862I) of 284 ± 118 nM and an IC50 [16] of 21 ± 12 nM. The IC50 (DFCI 429) was 252 ± 179 nM, the IC50 [17] was 7.38 ± 2.66 nM and the IC50 (NCI-N87) was 1.2 nM. For the same molecule, the IC50 (Ba/F3 cells HER2 L755S) was 140 ± 45.3 nM and the IC50 (H1781) was 151 ± 52.7 nM.
